One assay concerns the target HLA-B*0702 (Homo sapiens, UniProt P01889). Kind of assay: Purified HLA class I peptide binding assay, B*0702. As to conditions: binding affinity, HLA-B7 supermotif-bearing peptides.
The target of a further assay is HLA-B*3501 (Homo sapiens, UniProt P01889, A329T/A93T/A95T/C349S/D201E/D98Y/E176V/E187L/E204Q/E69T/I218V/K202T/L119I/Q94N/R155S/R180L/S121R/S35A/S48A/T118I/V127L/V306I/V36M/Y140S/Y91F). Kind of assay: Purified HLA class I peptide binding assay, B*3501. As to conditions: binding affinity, HLA-B7 supermotif-bearing peptides.
The next assay has as its target HLA-B*5101 (B51) (Homo sapiens, UniProt P01889, A329T/A93T/A95T/C349S/D138N/D201E/D98Y/E187L/E204Q/E69T/G107R/I218V/K202T/L105A/L119W/N104I/Q94N/R106L/R155S/R180L/S101N/S121T/S35A/S48A/V306I/V36M/Y195H/Y91F). Kind of assay: Purified HLA class I peptide binding assay, B51. As to conditions: binding affinity, HLA-B7 supermotif-bearing peptides; read-out: B*5101 nM.
The next assay addresses HLA-B*5301 (Homo sapiens, UniProt P01889, A329T/A93T/A95T/C349S/D201E/D98Y/E176V/E187L/E204Q/E69T/G107R/I218V/K202T/L105A/L119I/N104I/Q94N/R106L/R155S/R180L/S101N/S121R/S35A/S48A/T118I/V127L/V306I/V36M/Y140S/Y91F). Kind of assay: Purified HLA class I peptide binding assay, B*5301. To be noted: binding affinity, HLA-B7 supermotif-bearing peptides.
The target in another assay is HLA-B*5401 (Homo sapiens, UniProt P01889, A329T/C349S/D138N/D201E/E176V/E187T/E204Q/E69G/I76V/K202T/L119W/R155S/R180L/S121T/S35A/S48A/V127L/V306I/V36M/Y140L). In words: Purified HLA class I peptide binding assay, B*5401. To be noted: binding affinity, HLA-B7 supermotif-bearing peptides.
Assay [1] deals with 0.221A2.1 cell line (peptide-loaded target). In words: Primary CTL induction from normal donor PBMC, 51Cr release on peptide-pulsed targets. In kind it is cell-based, human. As to conditions: Number of donors yielding a positive response/total tested. Here is the method: The melanoma cells were treated with 100 U/ml IFNγ (Genzyme) for 48 hours at 37° C. before use as targets in the ^51Cr release and in situ IFNγ assays.
The monocytes were purified by plating 10×10^6 PBMC/well in a 6-well plate. After 2 hours at 37° C., the non-adherent cells were removed by gently shaking the plates and aspirating the supernatants. The wells were washed a total of three times with 3 ml RPMI to remove most of the non-adherent and loosely adherent cells. Three ml of complete medium containing 50 ng/ml of GM-CSF and 1,000 U/ml of IL4 were then added to each well. DC were used for CTL induction cultures following 7 days of culture.
Induction of CTL with DC and Peptide: CD8+ T-cells were isolated by positive selection with Dynal immunomagnetic beads (Dynabeads® M-450) and the detacha-bead® reagent. Typically about 200-250×10^6 PBMC were processed to obtain 24×10^6 CD8^+ T-cells (enough for a 48-well plate culture). Briefly, the PBMCs were thawed in RPMI with 30 μg/ml DNAse, washed once with PBS containing 1% human AB serum and resuspended in PBS/1% AB serum at a concentration of 20×10^6 cells/ml. The magnetic beads were washed 3 times with PBS/AB serum, added to the cells (140 μl beads/20×10^6 cells) and incubated for 1 hour at 4° C. with continuous mixing. The beads and cells were washed 4× with PBS/AB serum to remove the nonadherent cells and resuspended at 100×10^6 cells/ml (based on the original cell number) in PBS/AB serum containing 100 μ/ml detacha-bead® reagent and 30 μg/ml DNAse. The mixture is incubated for 1 hour at room temperature with continuous mixing. The beads were washed again with PBS/AB/DNAse to collect the CD8+ T-cells. The DC were collected and centrifuged at 1300 rpm for 5-7 minutes, washed once with PBS with 1% BSA, counted and pulsed with 40 μg/ml of peptide at a cell concentration of 1-2×10^6/ml in the presence of 3 μg/ml β2- microglobulin for 4 hours at 20° C. The DC were then irradiated (4,200 rads), washed 1 time with medium and counted again.
Setting up induction cultures: 0.25 ml cytokine-generated DC (@1×10^5 cells/ml) were co-cultured with 0.25 ml of CD8+ T-cells (@2×10^6 cell/ml) in each well of a 48-well plate in the presence of 10 ng/ml of IL-7. rHuman IL10 was added the next day at a final concentration of 10 ng/ml and rhuman IL2 was added 48 hours later at 10 IU/ml.
Restimulation of the induction cultures with peptide-pulsed adherent cells: Seven and fourteen days after the primary induction the cells were restimulated with peptide-pulsed adherent cells. The PBMCS were thawed and washed twice with RPMI and DNAse. The cells were resuspended at 5×10^6 cells/ml and irradiated at ˜4200 rads. The PBMCs were plated at 2×10^6 in 0.5 ml complete medium per well and incubated for 2 hours at 37° C. The plates were washed twice with RPMI by tapping the plate gently to remove the nonadherent cells and the adherent cells pulsed with 10 μg/ml of peptide in the presence of 3 μg/ml β2 microglobulin in 0.25 ml RPMI/5% AB per well for 2 hours at 37° C. Peptide solution from each well was aspirated and the wells were washed once with RPMI. Most of the media was aspirated from the induction cultures (CD8+ cells) and brought to 0.5 ml with fresh media. The cells were then transferred to the wells containing the peptide-pulsed adherent cells. Twenty four hours later rhuman IL10 was added at a final concentration of 10 ng/ml and rhuman IL2 was added the next day and again 2-3 days later at 50 IU/ml (Tsai et al., Critical Reviews in Immunology 18(l-2):65-75, 1998). Seven days later the cultures were assayed for CTL activity in a ^51Cr release assay. In some experiments the cultures were assayed for peptide-specific recognition in the in situ IFNγ ELISA at the time of the second restimulation followed by assay of endogenous recognition 7 days later. After expansion, activity was measured in both assays for a side by side comparison. […]

Residues, ends and D or L forms follow the SMILES beside them.

Consider `CC[C@H](C)[C@H](NC(=O)[C@H](Cc1ccc(O)cc1)NC(=O)[C@H](CO)NC(=O)[C@@H](NC(=O)[C@H](CCC(=O)O)NC(=O)[C@@H](NC(=O)[C@H](CC(C)C)NC(=O)[C@H](C)NC(=O)[C@H](CCCNC(=N)N)NC(=O)[C@@H]1CCCN1C(=O)[C@@H](N)Cc1ccccc1)[C@@H](C)CC)[C@@H](C)O)C(=O)O` (H-FPRALIETSYI-OH; N-terminus and C-terminus assumed), for which the IC50 on HLA-B*0702 worked out at 7.4 nM; on HLA-B*3501 it was 3600 nM; on HLA-B*5101 (B51), 70 nM; at HLA-B*5301, 465 nM; at HLA-B*5401, 127 nM.

As for `CC[C@H](C)[C@H](NC(=O)[C@H](CC(C)C)NC(=O)[C@H](C)NC(=O)[C@H](CCCNC(=N)N)NC(=O)[C@@H]1CCCN1C(=O)[C@@H](N)Cc1ccccc1)C(=O)N[C@@H](CCC(=O)O)C(=O)N[C@H](C(=O)N[C@@H](CO)C(=O)N[C@@H](Cc1ccc(O)cc1)C(=O)N[C@H](C(=O)O)C(C)C)[C@@H](C)O`, the IC50 at HLA-B*0702 is 6.3 nM; at HLA-B*3501 it was 4500 nM; at HLA-B*5101 (B51), 128 nM; on HLA-B*5301, 7750 nM; on HLA-B*5401 it was 7.1 nM.

For the compound `CC[C@H](C)[C@H](NC(=O)CNC(=O)[C@H](Cc1ccccc1)NC(=O)[C@@H](NC(=O)[C@H](CC(C)C)NC(=O)[C@H](CCC(N)=O)NC(=O)[C@H](CC(C)C)NC(=O)[C@@H](N)Cc1ccc(O)cc1)C(C)C)C(=O)N[C@@H](CCC(=O)O)C(=O)N[C@H](C(=O)O)C(C)C` [YLQLVFG1EV], the “CTL Wild-type” value in assay [1] was 313.

`CC(C)C[C@H](NC(=O)[C@H](C)NC(=O)[C@H](CCCNC(=N)N)NC(=O)[C@@H]1CCCN1C(=O)[C@@H](N)Cc1ccccc1)C(=O)N[C@H](C(=O)N[C@@H](CCC(=O)O)C(=O)N[C@H](C(=O)N[C@@H](CO)C(=O)N[C@@H](Cc1ccc(O)cc1)C(=O)N[C@H](C(=O)O)C(C)C)[C@@H](C)O)C(C)C`: the IC50 at HLA-B*0702 was 4.2 nM; at HLA-B*3501, 4230 nM; at HLA-B*5101 (B51) it was 204 nM; at HLA-B*5301, over 10000 nM; at HLA-B*5401 it was 10 nM.

On to `CC[C@H](C)[C@H](NC(=O)[C@H](CC(C)C)NC(=O)[C@H](CC(C)C)NC(=O)CNC(=O)[C@H](C)NC(=O)[C@H](CCCCN)NC(=O)[C@@H]1CCCN1C(=O)[C@@H](N)Cc1ccccc1)C(=O)N[C@H](C(=O)N[C@H](C(=O)O)C(C)C)[C@@H](C)CC` (H-FPKAGLLIIV-OH; N-terminus and C-terminus assumed), for which the IC50 on HLA-B*0702 turned out to be 220 nM; at HLA-B*3501, 878 nM; on HLA-B*5101 (B51), 190 nM; on HLA-B*5301, 4650 nM; on HLA-B*5401, 1.1 nM.

Regarding `CSCC[C@H](NC(=O)[C@@H](NC(=O)[C@@H](NC(=O)[C@@H]1CCCN1C(=O)[C@@H](N)Cc1ccccc1)[C@@H](C)O)[C@@H](C)O)C(=O)N[C@@H](CC(N)=O)C(=O)N[C@@H](Cc1ccc(O)cc1)C(=O)N1CCC[C@H]1C(=O)N[C@@H](CC(C)C)C(=O)O` (H-FPTTMNYPL-OH; N-terminus and C-terminus assumed), the IC50 at HLA-B*0702 was 6.4 nM; on HLA-B*3501 it was 4.5 nM; on HLA-B*5101 (B51), 423 nM; on HLA-B*5301, 39 nM; at HLA-B*5401, 3 nM.

Consider `CC[C@H](C)[C@H](NC(=O)[C@H](Cc1ccc(O)cc1)NC(=O)[C@H](CC(C)C)NC(=O)[C@H](Cc1c[nH]cn1)NC(=O)CNC(=O)[C@@H](NC(=O)[C@@H]1CCCN1C(=O)[C@@H](N)Cc1ccccc1)[C@@H](C)CC)C(=O)N[C@@H](Cc1ccccc1)C(=O)N[C@@H](C)C(=O)O` (H-FPIGHLYIFA-OH; N-terminus and C-terminus assumed), for which the IC50 at HLA-B*0702 came to 39 nM; at HLA-B*3501, 51 nM; on HLA-B*5101 (B51), 56 nM; at HLA-B*5301, 179 nM; at HLA-B*5401, 0.4 nM.

For the origin of these results see US20040053822A1, “Inducing cellular immune responses to mage2/3 using peptide and nucleic acid compositions” (priority 2002, published 2004).
